Source: BindingDB's records for PubMed 35073486 (The University of Queensland, 2022)

experiment: Inhibition of P-gp mediated doxorubicin resistance in human SW620/AD300 cells overexpressing P-gp measured after 48 hrs by MTT assay

Row | IC50 [nM] | SMILES
1 | 5750 | COc1cccc2c1C(=O)c1c(O)c3c(c(O)c1C2=O)C[C@@](O)(C(=O)CO)C[C@@H]3O[C@H]1C[C@H](N)[C@H](O)[C@H](C)O1 [Adriamycin]

experiment: Inhibition of P-gp mediated doxorubicin resistance in human SW620/AD300 cells overexpressing P-gp in presence of doxorubicin measured after 52 hrs by MTT assay

Row | IC50 [nM] | SMILES
2 | 1010 | C[C@@H]1OC(CC(=O)O)=Cc2c1c(O)c1c3c(c4n(c23)[C@H]([C@@H](C)O)CC4)C=CC1=O
3 | 1440 | C[C@H]1OC(CC(=O)O)=Cc2c1c(O)c1c3c(c4n(c23)[C@H]([C@@H](C)O)CC4)C=CC1=O
4 | 4490 | C[C@@H](O)[C@@H]1CCc2c3c4c(c(O)c(O)c(C[C@@H](O)CC(=O)O)c4n21)C(=O)C=C3

Continued, compound first:

Row | SMILES | IC50 [nM]
5 | C[C@H]1O[C@H](CC(=O)O)Cc2c1c(O)c1c3c(c4n(c23)[C@@H]([C@@H](C)O)CC4)C=CC1=O | 1530
6 | C[C@H]1O[C@]2(C)CC(=O)O[C@]2(C)c2c1c(O)c1c3c(c4n(c23)[C@@H]([C@@H](C)O)CC4)C=CC1=O | 7580
7 | COC(=O)C[C@H]1Cc2c(c(O)c3c4c(c5n(c24)[C@H]([C@@H](C)O)CC5)C=CC3=O)[C@H](C)O1 | 1200
8 | C[C@@H]1O[C@@H](CC(=O)O)C(=O)c2c1c(O)c1c3c(c4n(c23)[C@H]([C@@H](C)O)CC4)C=CC1=O | 1480
9 | C[C@H]1Oc2c(O)c3c4c(c5n(c4c2C[C@H](CC(=O)O)O1)[C@H]([C@@H](C)O)CC5)C=CC3=O | 5040
